Data: patent US6346626B1, “Chromanone and thiochromanone compounds” (Novartis AG, priority 1998, dated 2002)

How the values were obtained:
[1] = target: T1, steroid sulfatase in HaCaT keratinocytes (Homo sapiens, UniProt P08842); assay: Steroid sulfatase inhibition in HaCaT cells incubated with DHEAS; format: cell-based; conditions: intact HaCaT keratinocytes, 0.3 μM DHEAS, 96 hours
T1 construct: HaCaT keratinocytes are cultivated in Dulbecco's modification of Eagle's medium (DMEM); endogenous in cells; host or cells: HaCaT keratinocytes
T1 sequence (P08842 22-583): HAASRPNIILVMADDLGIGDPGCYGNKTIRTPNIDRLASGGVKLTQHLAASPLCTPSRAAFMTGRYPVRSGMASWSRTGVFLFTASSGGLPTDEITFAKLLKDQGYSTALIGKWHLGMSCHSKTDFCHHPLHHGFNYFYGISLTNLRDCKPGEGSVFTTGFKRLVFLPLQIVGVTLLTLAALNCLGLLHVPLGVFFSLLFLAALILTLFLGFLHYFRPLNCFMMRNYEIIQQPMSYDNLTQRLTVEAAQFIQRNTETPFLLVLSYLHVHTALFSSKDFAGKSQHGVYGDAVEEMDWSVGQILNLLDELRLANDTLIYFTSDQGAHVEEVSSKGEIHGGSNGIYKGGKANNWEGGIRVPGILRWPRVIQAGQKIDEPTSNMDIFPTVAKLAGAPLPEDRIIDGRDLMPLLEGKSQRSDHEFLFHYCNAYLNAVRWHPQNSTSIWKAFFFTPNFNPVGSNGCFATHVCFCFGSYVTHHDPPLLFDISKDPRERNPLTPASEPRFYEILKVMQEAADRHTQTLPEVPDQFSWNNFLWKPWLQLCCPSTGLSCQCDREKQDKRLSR
Method: Steroid Sulfatase Inhibition in HaCaT Cells Incubated with DHEAS
HaCaT keratinocytes are cultivated in Dulbecco's modification of Eagle's medium (DMEM) supplemented with 10% v/v fetal calf serum (FCS). They are grown to confluency and then harvested by trypsinization. Approximately 2×10^6 cells are dispensed into 9.6 cm^2 dishes and incubated in medium containing FCS until confluency is reached. Then the medium is changed to serum-free DMEM (1.5 ml per well); 0.3 μM DHEAS is included as substrate with 1.5 μCi/well [^3H]-DHEAS (21 Ci/mmol) as tracer. Incubation is continued for 96 hours. […] In parallel, DHEAS is also incubated with medium without cells as a control for non-enzymatic hydrolysis. After incubation, the supernatant is removed and 1 ml is extracted with 4 ml of toluene. 3 ml of the organic layer are collected and the solvent evaporated in vacuo. The residue is taken up in acetonitrile. 10 μg DHEA is included as carrier. The extract is analysed by high performance liquid chromatography (HPLC) using a RP C-8 column and isocratic elution with 10 mM ammonium sulfate pH 6/acetonitrile (60/40), at a flow rate of 1 ml/min. The amount of DHEA cleaved during incubation is calculated from the area of the corresponding radioactive peak determined by continuous monitoring with a radiodetector equipped with a flow-cell.

[2] = target: T2, steroid sulfatase (Homo sapiens, UniProt P08842); assay: Steroid sulfatase inhibition in vitro (purified enzyme, 4-methylumbelliferyl sulfate cleavage, fluorescence); conditions: purified human placental steroid sulfatase, 0.5 mM 4-methylumbelliferyl sulfate, 37°, 1 hour; reference determined in parallel
T2 sequence (P08842 22-583): T1 sequence (P08842 22-583)
Method: Steroid Sulfatase Inhibition in vitro
a) Purification of Human Steroid Sulfatase
Human placenta is obtained fresh after delivery and stripped of membranes and connective tissues. For storage the material is frozen at −70°. After thawing, all further steps are carried out at 4°, while pH values are adjusted at 20°. 400 g of tissue are homogenized in 1.2 l of buffer A (50 mM Tris-HCl, pH 7.4; 0.25M sucrose). The homogenate is centrifuged at 10,000 g for 45 minutes. The supernatant is set aside and the pellet re-homogenized in 500 ml of buffer A. After centrifugation the two supernatants are combined and subjected to ultracentrifugation (100,000 g, 1 hour). The pellet is resuspended in buffer A and the centrifugation repeated. The pellet is suspended in 50 ml of 50 mM Tris-HCl, pH 7.4 and stored at −20° until further work-up.
After thawing, microsomes are collected by ultracentrifugation as described above and suspended in 50 ml of buffer B (10 mM Tris-HCl, pH 7.0; 1 mM EDTA; 2 mM 2-mercaptoethanol; 1% Triton X-100 v/v; 0.1% aprotinin v/v). After 1 hour on ice with gentle agitation the suspension is centrifuged (100,000 g, 1 hour). […]
Purified human steroid sulfatase also readily cleaves aryl sulfates such as 4-methylumbelliferyl sulfate. […]
Plates are incubated at 37° for 1 hour. […] Fluorescence intensity is measured (Titertek Fluoroskan II) with λex=355 nm and λem=460 nm. […]

[3] = target: T2, steroid sulfatase; assay: Steroid sulfatase inhibition in cell extracts (HaCaT keratinocytes or 1BR3GN fibroblasts, [3H]-DHEAS cleavage); format: biochemical; design: the supernatant which contains the solubilized enzyme is removed and stored at 4°; endogenous in cells; host or cells: HaCaT keratinocytes or 1BR3GN fibroblasts (microsomal extract); conditions: solubilized enzyme from HaCaT or 1BR3GN cells, 50 μM DHEAS, 30 minutes at 37°; depending on the enzyme concentration used
Method: Steroid Sulfatase Inhibition in Cell Extracts
Human keratinocytes (HaCaT) or human skin-derived fibroblasts (1BR3GN) are grown to confluency using standard cell culture techniques. Cells are harvested by trypsinization, washed once with phosphate-buffered saline (PBS) and suspended in 20 mM Tris-HCl, pH 8.0. The suspension is sonicated and then centrifuged at 12000 g for 30 minutes. The supernatant is subjected to ultracentrifugation at 100000 g for 60 minutes. The resulting microsomal pellet is resuspended in buffer containing 0.1% Triton X-100 v/v and left standing for 30 minutes. After additional centrifugation at 100000 g for 30 minutes the supernatant which contains the solubilized enzyme is removed and stored at 4°.
For assay of the enzymatic activity 10 μl of enzyme solution are added to 100 μl of 50 μM dehydroepiandrosterone sulfate (DHEAS) containing approximately 60000 dpm [^3H]-DHEAS (21 Ci/mmol) in 0.1 M Tris-HCl, pH 7.5; 0.1% v/v Triton X-100. Test compound is included at various concentrations added from stock solutions in DMSO. After incubation for 30 minutes at 37°, 250 μl of 1N NaOH are added. The mixture is extracted with 1 ml of toluene. 800 μl of the organic layer are subjected to liquid scintillation counting to determine the fraction of substrate that has been cleaved to dehydroepiandrosterone (DHEA).

SMILES | melting point | IC50 [1] | IC50 [2] | IC50 [3]
CN(C)S(=O)(=O)Oc1ccc2oc(C(C)(C)C)cc(=O)c2c1 [Example 9, N,N-Dimethylsulfamic acid 2-t-butyl-4H-chromen-4-on-6-yl ester] | 83 to 85 °C |  |  | 
C[C@]12CC[C@@H]3c4ccc(OS(N)(=O)=O)cc4CC[C@H]3[C@@H]1CCC2=O [Estrone-3-O-sulfamate] |  | ~0.1 nM | ~60 nM | 1 to 5 nM
